Holding throughout (format): physicochemical
Series [1] is described as follows: Interfacial tension measurements, water/oil pendant drop test (CMC from interfacial tension-concentration graph). Here is the method: To test the amphiphilic properties of each molecule, we measured the water/oil interfacial tension using pendant drop test. In a typical test, we inject the organic solution with surfactants slowly into the water phase with a bent needle with 1 mm diameter. The interfacial tension is calculated by the force balance with the buoyancy force. The critical micelle concentration (CMC) can be obtained by checking the critical point of interfacial tension-concentration graph. […] The CMC of MAX10 and MAX8 are around 2.5 mg/mL.

Series [2] can be described thus: Emulsion stability measurements (water/cyclohexane emulsions, bright-field microscope). Conditions: water/oil emulsion (67% water and 33% cyclohexane) containing 1% surfactant, FIG. 2. As to the method:
The emulsions were prepared by mixing 1 ml of water (with 1 mg/ml of Acian blue dye) and 2 ml cyclohexane containing 3,5-O-dodecylidene-xylose or 2-((dodecyloxy)methyl) tetrahydrofuran-3,4-diol) at a concentration of 0.1% and then mixed by vortex for 30 s.
Emulsions were characterized using a bright-field microscope (Leitz Ergolux) during the storage after preparation. […] Besides, a water/oil emulsion (67% water and 33% cyclohexane) containing 1% 3,5-O-dodecylidene-xylose was kept for about 1 year to observe its possible destablization.

Series [3] is described as follows: Accelerated aqueous decomposition test (boiling in water, HPLC). Conditions: FIG. 16. As to the method: HPLC analyses for the accelerated aqueous decomposition of MAXn were performed using a HPX-87H Column (300 mm×7.8 mm; column temperature=60° C.) using pH 2 water as eluent (flow rate=0.6 ml·min^−1, Vinj=20 μL) with 1260 Refractive Index Detector (RID) (G1362A)
To gain insight into the degradation products of 1,2-O-dodecylidene-xylose (MAX12) in water, an accelerating aging test was performed by boiling it in water. Samples were taken at various time points and analyzed by HPLC (pH2 aqueous-phase chromatography, HPX-87H Column (300 mm×7.8 mm; 125-0140), 1260 Refractive Index Detector (RID) (G1362A), flow rate=0.6 ml·min^−1, Vinj=20 μL, column temperature=60° C.). […] And to our knowledge, fatty aldehydes can be oxidized into fatty acids catalyzed by the aldehyde dehydrogenase enzyme. Xylose and fatty acids are readily biodegradable.

A short description of series [4]: quick emulsion test in ethyl acetate and water. The conditions noted are these: non-miscible system of ethyl acetate and water, mixture neutralized until pH 7, FIG. 1a. An excerpt: The mixture was neutralized until pH 7, and dissolved in a non-miscible system of ethyl acetate and water to do a quick emulsion test.
Where [5] appears, read: water/oil interfacial tension, FIG. 7.

With 3,5-O-decylidene-xylose [MAX10], in series [1] (setting [5]), the “critical micelle concentration (CMC)” value is given as “around 2.5 mg/mL”.

For 3,5-O-dodecylidene-xylose [MAX12], in series [2], the “state of emulsion after about 1 year storage” value is listed as “most of the volume maintained the form of emulsion”. The “critical micelle concentration (CMC)” value in series [1] (setting [5]) stood at 0.35 mg/mL. Further, in series [3], the “time to cleavage into xylose and fatty aldehyde” value is 2 days.

In the case of 3,5-O-octylidene-xylose [MAX8], the “critical micelle concentration (CMC)” value in series [1] (setting [5]) is given as “around 2.5 mg/mL”.

For the molecule `CCCCCCCCO` [1-octanol], the “phase separation / formation of emulsion” value in series [4] is given as “phase separated”.

As to `CCCCCCCCCCCCOCC1OCC(O)C1O` (centres unmarked) [2-((dodecyloxy)methyl)tetrahydrofuran-3,4-diol], the “interfacial tension plateau value” in series [1] (cyclohexane/water) is given as “about 1.0 mN/m”. The “critical micelle concentration (CMC)” value in series [1] (cyclohexane/water, FIG. 8) is recorded as “around 0.5 g/L”.

These data come from patent US20250243233A1, “BIOBASED SURFACTANTS” (ECOLE POLYTECHNIQUE FEDERALE DE LAUSANNE (EPFL), priority 2022, published 2025).
